What was measured:
IgG2a = assay: Serum IgG2a in anti-IgD stimulated mice (two site sandwich ELISA, Assay C); format: in vivo, mouse (Balb/c female); settings: for inhibition of IgG2a / IgG2a ±: 20 μg days 3 and 4; for inhibition of IgG2a: Example 23; for IgG2a ±: Table 12, day 8 (control 849)
Procedure: (§1) Sera from mice treated with compounds in accordance with the method of the invention are analyzed for levels of IgG1, IgG2a, IgG3, and IgM.
Measurement of mouse IgG2a by a two site sandwich ELISA is performed in substantial accordance with the teaching of Assay B except with the following changes. NuncImmulon II plates are used in this assay. The IgG2a standard is purchased from Southern Biotech. The standard curve is linear between 4-250 ng/ml. Serum containing IgG2a is diluted 1/6400 to 1/1,000,000. About a 1/6,000 dilution of goat anti mouse IgG2a (Southern Biotech) conjugated to alkaline phosphatase is used.
(§2) Sera from the mice described in Example 13 are analyzed for the levels of IgG1, IgG2a, and IgG3 by Assays B, C, and D, respectively.
(§3) Two groups of 4 Balb/c female mice per group are injected with both 100 μg FF1-4D5 antibody and 100 μg H∂A1 antibody. One of these groups is a stimulated control designated Group B. On day 3 and 4, the other group is injected with 40 μg (±) methyl 11α, 16-dihydroxy-1-methyl-9-oxoprosta-4Z,13E-dien-1-oate. Another group is injected with only PBS as an unstimulated control (Group A). On day -1 and 8, 50-100 μl of serum is recovered and analyzed for IgE, IgG1 and IgG2a by Assays A, B, and C, respectively.
(§4) 3 groups of 4 Balb/c female mice per group are injected with both 100 μg FF1-4D5 antibody and 100 μg H∂A1 antibody on day 0. Group A is given no further treatment. On day 3 and 4, one group of mice is injected with 20 μg (±) methyl 2-[2-[3R-3α-hydroxy-2β-(4-hydroxy-4-methyl-1E-octenyl-5-oxo-1α-cyclopentyl]-methyl]cyclopropanebutanoate (Group B) and another group with 20 μg (±) methyl 2-[2-[3R-3α-hydroxy-2β-(4-hydroxy-4-methyl-1E-octenyl)-5-oxo-1α-cyclopentyl]ethyl]cyclopropanepropanoate (Group C) as in Example 13. On day -1 and 8, 50-100 μl of serum is recovered and analyzed for IgE, IgG1, IgG2a and IgG3 by Assays A, B, C and D, respectively. The selectivity of inhibition of IgE is shown in Table 12.
(§5) Three groups of 5 Balb/c female mice per group are injected with both 100 μg FF1-4D5 antibody and 100 μg H∂A1 antibody on day 0. Group A is a control with no further treatment. On day 3 and 4, the mice are injected with 20 μg (±) methyl 11α,16-dihydroxy-4,4,16-trimethyl-9-oxoprosta-13E-en-1-oate (Group B) or 20 μg (±) methyl 11α,16-dihydroxy-16-methyl-9-oxoprosta-3,5Z,13E-trien-1-oate (Group C) as in Example 13. On day -1 and 8, […] of serum is recovered and analyzed for IgE, IgG1, IgG2a, IgG3 and IgM by Assays A, B, C, D and E, respectively.

IgG3 = assay: Serum IgG3 in anti-IgD stimulated mice (two site sandwich ELISA, Assay D); format: in vivo, mouse (Balb/c female); settings: for inhibition of IgG3: Example 23
IgE = assay: ED50 for inhibition of IgE calculated from the examples; format: in vivo, mouse; settings: dose to achieve 50% inhibition of IgE
Procedure: From the data in the above examples, the effective dose of each prostaglandin to achieve 50% inhibition of IgE (ED50) was calculated.

[1] = Diarrheal effects in rats; settings: rat, in vivo, po
IgG1 = assay: Serum IgG1 in anti-IgD stimulated mice (two site sandwich ELISA, Assay B); format: in vivo, mouse (Balb/c female); settings: for inhibition of IgG1: Example 23
Procedure: as §1
Mouse IgG1 measurement by a two site sandwich ELISA is as follows. About 5 μg of rabbit anti mouse IgG (Organon-Teknika-Cappel, Malvern, Pa.) is attached to the wells of a NuncImmulon 96 well plate and IgG1 levels are determined in substantial accordance with Assay A except with the following changes. The IgG1 standard is purchased from Southern BioTech, Birmingham, Ala., and stored at 10 μg/ml in 2% NBS in PBS at 4° C. The standard curve is prepared by diluting the mouse IgG1 standard in 0.05% Tween-80 in PBS, and is linear between 3.9 and 250 ng/ml. Serum containing IgG1 is diluted 1/10,000 to 1/1,000,000 in 0.05% Tween 80-PBS, to place the measurement within the standard curve. Standard IgG1 (or diluted serum) is incubated at about 37° C. for 1 hour and the plates are washed with 0.05% Tween 80-PBS as described in Assay A. About a 1/3,000 dilution of Goat anti mouse IgG1 (Southern Biotech, Birmingham, Ala.) conjugated to alkaline phosphatase in 0.05% Tween 80-PBS is added to each well and incubated at about 37° C. for 60 minutes. The plate is washed and colorimetric substrate, prepared as described by the manufacturer (Alkaline Phosphatase Substrate System, KPL, Gaithersburg, Md.), is added and optical density and data analysis is performed in the same manner as Assay A.
as §2, §3, §4, §5

[2] = 2 μg IP days 3 and 4, day -1 baseline before treatment
[3] = 5 μg IP days 3 and 4, day -1 baseline before treatment
[4] = 10 μg IP days 3 and 4, day -1 baseline before treatment
[5] = 20 μg IP days 3 and 4, day -1 baseline before treatment
[6] = 40 μg IP days 3 and 4, day -1 baseline before treatment
[7] = Table 12, 20 μg days 3 and 4, day 8 (control 584)
[8] = Table 12, 20 μg days 3 and 4, day 8 (control 10525)

CCCCC(C)(O)C/C=C/[C@H]1[C@H](O)CC(=O)[C@@H]1C/C=C\CCCC(=O)OC (mixture of isomers) [(±) methyl 11α,16-dihydroxy-16-methyl-9-oxoprosta-5Z,13E-dien-1-oate]
IgG2a ± SD (IgG2a; 2 μg IP days 3 and 4, day 7 (control 139)): 114 ± 61 µg/mL
IgG2a ± SD (IgG2a; 2 μg IP days 3 and 4, day 8 (control 554)): 277 ± 111 µg/mL
IgG2a ± SD (IgG2a; 2 μg IP days 3 and 4, day 9 (control 923)): 1053 ± 256 µg/mL
IgG2a ± SD (IgG2a; 2 μg IP days 3 and 4, day 11 (control 951)): 1124 ± 219 µg/mL
IgG2a ± SD (IgG2a; [2]): 25 ± 25 µg/mL
IgG2a ± SD (IgG2a; 5 μg IP days 3 and 4, day 7): 133 ± 67 µg/mL
IgG2a ± SD (IgG2a; 5 μg IP days 3 and 4, day 8): 481 ± 192 µg/mL
IgG2a ± SD (IgG2a; 5 μg IP days 3 and 4, day 9): 1093 ± 245 µg/mL
IgG2a ± SD (IgG2a; 5 μg IP days 3 and 4, day 11): 1540 ± 201 µg/mL
IgG2a ± SD (IgG2a; [3]): 58 ± 66 µg/mL
IgG2a ± SD (IgG2a; 10 μg IP days 3 and 4, day 7): 107 ± 45 µg/mL
IgG2a ± SD (IgG2a; 10 μg IP days 3 and 4, day 8): 276 ± 168 µg/mL
IgG2a ± SD (IgG2a; 10 μg IP days 3 and 4, day 9): 855 ± 117 µg/mL
IgG2a ± SD (IgG2a; 10 μg IP days 3 and 4, day 11): 1097 ± 289 µg/mL
IgG2a ± SD (IgG2a; [4]): 26 ± 7 µg/mL
IgG2a ± SD (IgG2a; 20 μg IP days 3 and 4, day 7): 182 ± 105 µg/mL
IgG2a ± SD (IgG2a; 20 μg IP days 3 and 4, day 8): 493 ± 187 µg/mL
IgG2a ± SD (IgG2a; 20 μg IP days 3 and 4, day 9): 1170 ± 285 µg/mL
IgG2a ± SD (IgG2a; 20 μg IP days 3 and 4, day 11): 2133 ± 862 µg/mL
IgG2a ± SD (IgG2a; [5]): 29 ± 9 µg/mL
IgG2a ± SD (IgG2a; 40 μg IP days 3 and 4, day 7): 81 ± 12 µg/mL
IgG2a ± SD (IgG2a; 40 μg IP days 3 and 4, day 8): 433 ± 314 µg/mL
IgG2a ± SD (IgG2a; 40 μg IP days 3 and 4, day 9): 1177 ± 383 µg/mL
IgG2a ± SD (IgG2a; 40 μg IP days 3 and 4, day 11): 1667 ± 675 µg/mL
IgG2a ± SD (IgG2a; [6]): 23 ± 1 µg/mL
IgG3 ± SD (IgG3; 2 μg IP days 3 and 4, day 7 (control 227)): 370 ± 229 µg/mL
IgG3 ± SD (IgG3; 2 μg IP days 3 and 4, day 8 (control 519)): 882 ± 310 µg/mL
IgG3 ± SD (IgG3; 2 μg IP days 3 and 4, day 9 (control 510)): 741 ± 475 µg/mL
IgG3 ± SD (IgG3; 2 μg IP days 3 and 4, day 11 (control 465)): 687 ± 152 µg/mL
IgG3 ± SD (IgG3; [2]): 70 ± 10 µg/mL
IgG3 ± SD (IgG3; 5 μg IP days 3 and 4, day 7): 464 ± 161 µg/mL
IgG3 ± SD (IgG3; 5 μg IP days 3 and 4, day 8): 640 ± 46 µg/mL
IgG3 ± SD (IgG3; 5 μg IP days 3 and 4, day 9): 649 ± 232 µg/mL
IgG3 ± SD (IgG3; 5 μg IP days 3 and 4, day 11): 559 ± 162 µg/mL
IgG3 ± SD (IgG3; [3]): 109 ± 44 µg/mL
IgG3 ± SD (IgG3; 10 μg IP days 3 and 4, day 7): 494 ± 267 µg/mL
IgG3 ± SD (IgG3; 10 μg IP days 3 and 4, day 8): 789 ± 264 µg/mL
IgG3 ± SD (IgG3; 10 μg IP days 3 and 4, day 9): 760 ± 340 µg/mL
IgG3 ± SD (IgG3; 10 μg IP days 3 and 4, day 11): 802 ± 216 µg/mL
IgG3 ± SD (IgG3; [4]): 68 ± 2 µg/mL
IgG3 ± SD (IgG3; 20 μg IP days 3 and 4, day 7): 446 ± 266 µg/mL
IgG3 ± SD (IgG3; 20 μg IP days 3 and 4, day 8): 1075 ± 453 µg/mL
IgG3 ± SD (IgG3; 20 μg IP days 3 and 4, day 9): 1636 ± 275 µg/mL
IgG3 ± SD (IgG3; 20 μg IP days 3 and 4, day 11): 1288 ± 156 µg/mL
IgG3 ± SD (IgG3; [5]): 77 ± 10 µg/mL
IgG3 ± SD (IgG3; 40 μg IP days 3 and 4, day 7): 236 ± 84 µg/mL
IgG3 ± SD (IgG3; 40 μg IP days 3 and 4, day 8): 639 ± 104 µg/mL
IgG3 ± SD (IgG3; 40 μg IP days 3 and 4, day 9): 1048 ± 167 µg/mL
IgG3 ± SD (IgG3; 40 μg IP days 3 and 4, day 11): 1044 ± 115 µg/mL
IgG3 ± SD (IgG3; [6]): 68 ± 6.5 µg/mL
ED50 IgE Inhibition (IgE): 1.0 μg/mouse/TID
TD50 at 8 h [1]: 0.173 mg/kg
IgG1 ± SD (IgG1; 40 μg IP days 3 and 4, day 8): 15666 ± 2300 µg/mL
IgG1 ± SD (IgG1; [6]): 175 ± 32 µg/mL

CCCCC(C)(O)C/C=C/[C@H]1[C@H](O)CC(=O)[C@@H]1CCC1CC1CCC(=O)OC (relative stereo) [(±) methyl 2-[2-[3R-3α-hydroxy-2β-(4-hydroxy-4-methyl-1E-octenyl)-5-oxo-1α-cyclopentyl]ethyl]cyclopropanepropanoate]
inhibition of IgG2a (IgG2a): not IgG1, IgG2a or IgG3
IgG2a ± (IgG2a): 840 ± 484 µg/mL
inhibition of IgG3 (IgG3; 20 μg days 3 and 4): not IgG1, IgG2a or IgG3
IgG3 ± SD (IgG3; [7]): 901 ± 213 µg/mL
ED50 IgE Inhibition (IgE): 1.0 μg/mouse/TID
inhibition of IgG1 (IgG1; 20 μg days 3 and 4): not IgG1, IgG2a or IgG3
IgG1 ± SD (IgG1; [8]): 22573 ± 5690 µg/mL

CCCCC(C)(O)C/C=C/[C@H]1[C@H](O)CC(=O)[C@@H]1CC1CC1CCCC(=O)OC (relative stereo) [(±) methyl 2-[2-[3R-3α-hydroxy-2β-(4-hydroxy-4-methyl-1E-octenyl)-5-oxo-1α-cyclopentyl]methyl]cyclopropanebutanoate]
inhibition of IgG2a (IgG2a): not IgG1, IgG2a or IgG3
IgG2a ± (IgG2a): 834 ± 235 µg/mL
inhibition of IgG3 (IgG3; 20 μg days 3 and 4): not IgG1, IgG2a or IgG3
IgG3 ± SD (IgG3; [7]): 520 ± 39 µg/mL
ED50 IgE Inhibition (IgE): 9.0 μg/mouse/TID
inhibition of IgG1 (IgG1; 20 μg days 3 and 4): not IgG1, IgG2a or IgG3
IgG1 ± SD (IgG1; [8]): 14470 ± 2997 µg/mL
